Reference: US10556896B2, “Crystalline forms of (3-Amino-oxetan-3-ylmethyl)-[2-(5,5-dioxo-5,6,7,9-tetrahydro-5lambda*6*-thia-8-aza-benzocyclohepten-8-yl)-6-methyl-quinazolin-4-yl]-amine” (Hoffmann-La Roche Inc., priority 2016, dated 2020)
In brackets after ≈: the same amount, converted by molar mass.

Legend:
Assay type in all cases: physicochemical
[1] = Hygroscopicity of crystal forms by dynamic vapour sorption (DVS); settings: for Hygroscopicity, water sorption @80% RH: 25° C.; for Hygroscopicity (result in words): compared with Form D
Experimental: Dynamic vapour sorption (DVS) was tested using a DVS intrinsic from SMS (Surface Measurement Systems Co. Ltd.). 20 mg compound (I) of each crystal form was placed in an aluminium sample pan and recorded the sample weight change under different humidity. The DVS method parameters were set according to Table 16, and the method was run by the machine based on such parameters. [table]

[2] = Equilibrium aqueous solubility in bio-relevant media (SGF, FaSSIF, FeSSIF); settings: for Final pH (FaSSIF) / Final pH (FeSSIF) / Final pH (SGF): after equilibration at 25° C. for 24 hours
Experimental: Aqueous solubility was determined by suspending 10 mg compound in different bio-relevant media including SGF, FaSSIF and FeSSIF. The suspension was equilibrated at 25° C. for 24 hours then the final pH was measured. The suspension was then filtered through a 0.22 um PVDF filter into a 2-mL HPLC vial. The quantitation was conducted by HPLC (described in Example 10) with reference to a standard solution.

[3] = Chemical stability of crystal forms (storage, HPLC chemical purity)
Experimental: HPLC condition is disclosed here in Table 1-1. [table] 40 mg compound (I) of crystal Forms C, E and F were stored in stability chamber with temperature and humidity controlled as 50° C. and 40° C./75% RH respectively, 40 mg compound (I) of Form B was stored at 105° C. oven. After each time point, the samples were analyzed by HPLC to check their chemical purity and compared with their initial value.

| SMILES | Hygroscopicity, water sorption @80% RH [1] [% water sorption @80% RH] | Hygroscopicity (result in words) [1] | S, mg/mL (FaSSIF) ([2]; 25° C., 24 hours) [mg/mL] | Final pH (FaSSIF) [2] | S, mg/mL (FeSSIF) ([2]; FeSSIF, 25° C., 24 hours) [mg/mL] | Final pH (FeSSIF) ([2]; FeSSIF) | S, mg/mL (SGF) ([2]; 25° C., 24 hours) [mg/mL] | Final pH (SGF) [2] | Chemical Purity, % ([3]; 105° C., 24 hr) [%] | Chemical Purity, % ([3]; Initial) [%] | Chemical Purity, % ([3]; 40° C./75% RH, 1 month) [%] | Chemical Purity, % ([3]; 50° C., 1 month) [%] | solubility thermodynamic at 24 h ([2]; FeSSIF, 25 °C, fessif, thermodynamic from solid, FeSSIF, 25° C., 24 hours, read-out: S, mg/mL (FeSSIF)) [mg/mL] |
| --- | --- | --- | --- | --- | --- | --- | --- | --- | --- | --- | --- | --- | --- |
| Cc1ccc2nc(N3CCS(=O)(=O)c4ccccc4C3)nc(NCC3(N)COC3)c2c1 [Example 1, Form A of compound (I), (3-Amino-oxetan-3-ylmethyl)-[2-(5,5-dioxo-5,6,7,9-tetrahydro-5lambda*6*-thia-8-aza-benzocyclohepten-8-yl)-6-methyl-quinazolin-4-yl]-amine] | 0.25 | much improved hygroscopicity than Form D | 0.12 | 6.60 | 1.72 | 5.31 | 2.40 | 4.80 | – | – | – | – | – |
| Cc1ccc2nc(N3CCS(=O)(=O)c4ccccc4C3)nc(NCC3(N)COC3)c2c1 [Example 2, Form B of compound (I), (3-Amino-oxetan-3-ylmethyl)-[2-(5,5-dioxo-5,6,7,9-tetrahydro-5lambda*6*-thia-8-aza-benzocyclohepten-8-yl)-6-methyl-quinazolin-4-yl]-amine] | – | – | – | – | – | – | – | – | 99.80 | 99.81 | – | – | – |
| Cc1ccc2nc(N3CCS(=O)(=O)c4ccccc4C3)nc(NCC3(N)COC3)c2c1 [Example 3, Form C of compound (I), (3-Amino-oxetan-3-ylmethyl)-[2-(5,5-dioxo-5,6,7,9-tetrahydro-5lambda*6*-thia-8-aza-benzocyclohepten-8-yl)-6-methyl-quinazolin-4-yl]-amine] | 0.04 | much improved hygroscopicity than Form D | 0.11 | 6.63 | 1.88 | 5.26 | 3.81 | 4.92 | – | 99.30 | 99.28 | 99.32 | – |
| Cc1ccc2nc(N3CCS(=O)(=O)c4ccccc4C3)nc(NCC3(N)COC3)c2c1 [Example 4, Form D of compound (I), (3-Amino-oxetan-3-ylmethyl)-[2-(5,5-dioxo-5,6,7,9-tetrahydro-5lambda*6*-thia-8-aza-benzocyclohepten-8-yl)-6-methyl-quinazolin-4-yl]-amine] | 7.52 | not suitable for further drug development | – | – | – | – | – | – | – | – | – | – | – |
| Cc1ccc2nc(N3CCS(=O)(=O)c4ccccc4C3)nc(NCC3(N)COC3)c2c1 [Example 5, Form E of compound (I), (3-Amino-oxetan-3-ylmethyl)-[2-(5,5-dioxo-5,6,7,9-tetrahydro-5lambda*6*-thia-8-aza-benzocyclohepten-8-yl)-6-methyl-quinazolin-4-yl]-amine] | 1.12 | much improved hygroscopicity than Form D | 0.90 | 5.31 | – | 5.34 | >5 | 4.69 | – | 99.49 | 99.14 | 99.45 | 2.18 (≈ 4.96 mM) |
| Cc1ccc2nc(N3CCS(=O)(=O)c4ccccc4C3)nc(NCC3(N)COC3)c2c1 [Example 6, Form F of compound (I), (3-Amino-oxetan-3-ylmethyl)-[2-(5,5-dioxo-5,6,7,9-tetrahydro-5lambda*6*-thia-8-aza-benzocyclohepten-8-yl)-6-methyl-quinazolin-4-yl]-amine] | 0.50 | much improved hygroscopicity than Form D | 1.58 | 4.99 | 1.99 | 5.18 | – | 3.15 | – | 99.62 | 99.42 | 99.43 | – |
